In patent publication US9718790B2, “Triazine derivative and pharmaceutical composition having an analgesic activity comprising the same” (SHIONOGI & CO., LTD., priority 2010, dated 2017) one finds IC50 data, which are given here for 58 compounds.

In one assay the target is human P2X3 receptor (Homo sapiens (Human), UniProt P56373). The assay is described as follows: Evaluation of human P2X3 receptor inhibitory activity (Fluo-3 calcium fluorescence, FDSS 3000, ATP stimulation).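 Further: stimulus was 50 nM ATP with fluorescence followed for 3 min, and the response per well was peak post-ATP fluorescence divided by the reading at measurement start.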 As to conditions: C6BU-1 cells stably expressing human P2X3 receptor. The class given is cell-based.
Chain of human P2X3 receptor (P56373 whole entry): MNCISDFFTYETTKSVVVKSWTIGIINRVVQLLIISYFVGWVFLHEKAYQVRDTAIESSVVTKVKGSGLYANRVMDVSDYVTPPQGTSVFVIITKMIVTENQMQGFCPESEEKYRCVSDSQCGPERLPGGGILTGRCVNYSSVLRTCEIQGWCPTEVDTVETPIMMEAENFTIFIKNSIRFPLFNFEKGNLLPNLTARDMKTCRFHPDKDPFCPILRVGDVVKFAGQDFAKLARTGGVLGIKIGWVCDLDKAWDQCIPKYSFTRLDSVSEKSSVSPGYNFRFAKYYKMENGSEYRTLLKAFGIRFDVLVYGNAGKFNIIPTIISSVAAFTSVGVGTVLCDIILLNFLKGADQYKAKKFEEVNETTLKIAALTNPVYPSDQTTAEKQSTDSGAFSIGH
Usually IC50 stands for the concentration that gives 50% inhibition. As to `Cc1ccc(Cn2c(=O)[nH]c(=O)[nH]/c2=N\c2ccc(Oc3ccnc(C(=O)O)c3)cc2)cc1` [Compound I-2140], the IC50 worked out at 7 nM.
On to `COC(=O)[C@@H](C)Cn1c(=O)[nH]/c(=N\c2ccc3nc(C)ccc3c2)n(Cc2ccc(C)cc2)c1=O` [Compound I-1275], for which the half-inhibitory concentration (IC50) was found to be 6 nM.
Turning to `CCOc1ccc(/N=c2\[nH]c(=O)n(C[C@@H](C)C(=O)O)c(=O)n2CC2CCCCC2)cc1Cl` [Compound I-0648], the half-maximal inhibitory concentration (IC50) stood at 336 nM.
`CC[C@@H](C)Oc1ccc(/N=c2\[nH]c(=O)n(C[C@H](C)C(=O)OC)c(=O)n2Cc2ccc(Cl)cc2)cc1` [Compound I-0727]: the half-inhibitory concentration (IC50) was 12 nM.
As to `COC(=O)C[C@@H](C)Cn1c(=O)[nH]/c(=N\c2ccc(OC(C)C)c(C)c2)n(Cc2ccc(Cl)cc2)c1=O` [Compound I-0761], the half-maximal inhibitory concentration (IC50) was determined as 15 nM.
Still for that read-out and setting: for `COC(=O)[C@@H](C)[C@@H](C)n1c(=O)[nH]/c(=N\c2ccc(OC(C)C)c(F)c2)n(Cc2ccc(Cl)cc2)c1=O` [Compound I-1315] the value was 40 nM; for `Cc1ccc(/N=c2\[nH]c(=O)n(C[C@H](C)C(=O)O)c(=O)n2Cc2ccc(Cl)cc2)cc1Cl` [Compound I-0696], 129 nM.
Same read-out and setting: for `COC(=O)[C@@H](C)Cn1c(=O)[nH]/c(=N\c2ccc(CCC3CC3)cc2)n(Cc2ccc(C)cc2)c1=O` [Compound I-1202] the value was 93 nM.
For `CCn1c(=O)[nH]/c(=N\c2ccc(Oc3nc(C(=O)O)co3)cc2)n(Cc2ccc(Cl)cc2)c1=O` [Compound I-2190], the IC50 came to 33 nM.
For `CC(C)Oc1ccc(/N=c2\[nH]c(=O)n(CCCNC(=N)N)c(=O)n2Cc2ccc(Cl)cc2)cc1F` [Compound I-0634], the concentration for half-maximal inhibition (IC50) was 11 nM.
Turning to `COC(=O)C(C)(C)Cn1c(=O)[nH]/c(=N\c2ccc(OCC3CC3)cc2)n(Cc2ccc(C)cc2)c1=O` [Compound I-1242], the IC50 came out at 15 nM.
Still for that read-out and setting: the same measure for `COC(=O)[C@@H](C)Cn1c(=O)[nH]/c(=N\c2ccc(OC(C)C)cc2)n(Cc2ccc(C)cc2)c1=O` [Compound I-0606]: 21 nM; for `CCn1c(=O)[nH]/c(=N\c2ccc(Oc3cncc(C(=O)OC)c3)cc2)n(Cc2ccc(Cl)cn2)c1=O` [Compound I-2154]: 133 nM; for `CCOC(=O)CCn1c(=O)[nH]/c(=N\c2ccc(Oc3cccnc3)cc2)n(Cc2ccc(Cl)cc2)c1=O` [Compound I-1204]: 5 nM.
Same read-out and setting: the same measure for `Cc1ccc(Cn2c(=O)n(CCC(=O)O)c(=O)[nH]/c2=N\c2ccc(OC3CCC3)c(Cl)c2)cc1` [Compound I-1332]: 54 nM; for `CC(C)Oc1ccc(/N=c2\[nH]c(=O)n(CCNCCO)c(=O)n2Cc2ccc(Cl)cc2)cc1F` [Compound I-2122]: 93 nM; for `Cc1cc(Oc2ccc(/N=c3\[nH]c(=O)n(CC(CO)CO)c(=O)n3Cc3ccc(Cl)cc3)cc2)ccn1` [Compound I-1954]: 5 nM.
`CCn1c(=O)[nH]/c(=N\c2ccc(Oc3nc(C(=O)O)cs3)cc2)n(Cc2ccc(Cl)cc2)c1=O` [Compound I-2193]: the IC50 was found to be 6 nM.
Still for that read-out and setting: for `Cc1ccc(Cn2c(=O)n(CCC(=O)O)c(=O)[nH]/c2=N\c2ccc(OC3CCC3)c(C)c2)cc1` [Compound I-1406] the value was 64 nM; for `COC(=O)c1cccc(Oc2ccc(/N=c3\[nH]c(=O)n(C)c(=O)n3Cc3ccc(C)cc3)cc2)c1` [Compound I-2031], 52 nM.
Take `CCc1cc2cc(/N=c3\[nH]c(=O)n(C[C@H](C)C(=O)O)c(=O)n3Cc3ccc(Cl)cc3)ccc2s1` [Compound I-1964]: the IC50 was determined as 277 nM.
`Cn1c(=O)[nH]/c(=N\c2ccc(Oc3cccc(C(=O)O)c3)cc2)n(Cc2ccc(Cl)cc2)c1=O` [Compound I-2064]: the half-inhibitory concentration (IC50) was 40 nM.
Regarding `C=Cc1cc(/N=c2\[nH]c(=O)n(C[C@H](C)C(=O)OC)c(=O)n2Cc2ccc(C)cc2)ccc1OCC` [Compound I-1191], the 50% inhibitory concentration (IC50) worked out at 22 nM.
Turning to `COC(=O)[C@@H](C)[C@@H](C)n1c(=O)[nH]/c(=N\c2ccc(OC3CCC3)cc2)n(Cc2ccc(Cl)cc2)c1=O` [Compound I-1452], the IC50 amounted to 14 nM.

Still in this assay, the particulars now being: C6BU-1 cells stably expressing human P2X3 receptor, Fluo-3 fluorescence, FDSS 3000.
With `COC(=O)[C@@H](C)Cn1c(=O)[nH]/c(=N\c2ccc(N3CCCC3)cc2)n(Cc2ccc(C)cc2)c1=O` [Compound I-1086], the half-maximal inhibitory concentration (IC50) is 291 nM.
Still for that read-out and setting: for `COC(=O)[C@@H](C)Cn1c(=O)[nH]/c(=N\c2cccc(C3=CCCC3)c2)n(Cc2ccc(C)cc2)c1=O` [Compound I-1084] the value was 392 nM.
As for `COC(=O)[C@@H](C)Cn1c(=O)[nH]/c(=N\c2ccc(Oc3ccccc3)cc2)n(Cc2ccc(Cl)cc2)c1=O` [Compound I-0989, (S)-1-(4-chlorobenzyl)-3-(2-methoxycarbonylpropyl)-6-(4-phenoxy-phenylimino)-1,3,5-triazinane-2,4-dion], the IC50 turned out to be 68 nM.
With `CCCCCOc1ccc(/N=c2\[nH]c(=O)n(CCC(=O)OCC)c(=O)n2Cc2ccc(C)cc2)cc1` [Compound I-1058], the IC50 stood at 43 nM.
Same read-out and setting: the same measure for `C[C@@H](C(=O)O)[C@H](C)n1c(=O)[nH]/c(=N\c2ccc(OCC3CC3)cc2)n(Cc2ccc(Cl)cc2)c1=O` [Compound I-0921]: 30 nM.
As for `CCC[C@H](C)Oc1ccc(/N=c2\[nH]c(=O)n(C[C@H](C)C(=O)OC)c(=O)n2Cc2ccc(C)cc2)cc1` [Compound I-1046], the concentration for half-maximal inhibition (IC50) is 28 nM.
Consider `COC(=O)[C@@H](C)Cn1c(=O)[nH]/c(=N\c2ccc(O[C@H](C)C(F)(F)F)cc2)n(Cc2ccc(Cl)cc2)c1=O` [Compound I-0942], for which the IC50 came to 22 nM.
Still for that read-out and setting: the same measure for `Cc1ccc(Cn2c(=O)n(C[C@H](C)C(=O)O)c(=O)[nH]/c2=N\c2ccc(Oc3cccnc3)cc2)cc1` [Compound I-1123]: 14 nM; for `Cc1ccc(Cn2c(=O)n(C[C@H](C)C(=O)O)c(=O)[nH]/c2=N\c2ccc(C3CCCCC3)cc2)cc1` [Compound I-1108]: 50 nM; for `O=C(O)CCn1c(=O)[nH]/c(=N\c2cccc(S(F)(F)(F)(F)F)c2)n(Cc2ccc(Cl)cc2)c1=O` [Compound I-1651]: 54 nM.
Take `COC(=O)[C@@H](C)Cn1c(=O)[nH]/c(=N\c2cccc(Br)c2)n(Cc2ccc(C)cc2)c1=O` [Compound I-1077]: the half-inhibitory concentration (IC50) worked out at 64 nM.
On the same count and under the same terms, for `COc1ccc2cc(/N=c3\[nH]c(=O)n([C@@H](C)[C@@H](C)C(=O)O)c(=O)n3Cc3ccc(Cl)cc3)ccc2c1` [Compound I-1773] the value was 29 nM; for `Cc1cc(/N=c2\[nH]c(=O)n(CC(=O)C(=O)O)c(=O)n2Cc2ccc(Cl)cc2)ccc1OC(C)C` [Compound I-1009], 69 nM.
`COC(=O)[C@@H](C)Cn1c(=O)[nH]/c(=N\c2ccc(OC3CCOCC3)cc2)n(Cc2ccc(C)cc2)c1=O` [Compound I-1073]: the IC50 was 92 nM.
Regarding `Cc1nc2ccc(/N=c3\[nH]c(=O)n(CC(=O)NCCO)c(=O)n3Cc3ccc(Cl)cc3)cc2s1` [Compound I-1661], the half-maximal inhibitory concentration (IC50) worked out at 6 nM.
For the compound `CCc1nc2ccc(/N=c3\[nH]c(=O)n(CC(=O)NCCO)c(=O)n3Cc3ccc(Cl)cc3)cc2s1` [Compound I-1808], the IC50 came to 4 nM.
Take `Cc1ccc(Cn2c(=O)n(C[C@H](C)C(=O)O)c(=O)[nH]/c2=N\c2cccc(C3CCCCC3)c2)cc1` [Compound I-1109]: the half-inhibitory concentration (IC50) is 430 nM.
For `CC(C)Oc1ccc(/N=c2\[nH]c(=O)n(CC(=O)NS(C)(=O)=O)c(=O)n2Cc2ccc(Cl)cc2)cc1Cl` [Compound I-1876], the IC50 turned out to be 35 nM.
Consider `COc1ccc(Oc2ccc(/N=c3\[nH]c(=O)n(CC(=O)O)c(=O)n3Cc3ccc(Cl)cc3)cc2)cn1` [Compound I-1799], for which the half-inhibitory concentration (IC50) came out at 382 nM.
In the case of `COC(=O)CC1(Cn2c(=O)[nH]/c(=N\c3ccc(OC(C)C)c(C)c3)n(Cc3ccc(C)cc3)c2=O)CC1` [Compound I-0980], the IC50 was 11 nM.

Still in this assay, the particulars now being: human P2X3 receptor, Test Example 1.
As to `COC(=O)[C@@H](C)n1c(=O)[nH]/c(=N\c2ccc(Oc3ccon3)cc2)n(Cc2ccc(Cl)cc2)c1=O` [Compound I-2460], the IC50 was found to be 35 nM.
`COCCn1c(=O)[nH]/c(=N\c2ccc(Oc3cncc(C(=O)OC)c3)cc2)n(Cc2ccc(Cl)cc2)c1=O` [Compound I-2537]: the IC50 amounted to 5 nM.
On to `Cc1cc(/N=c2\[nH]c(=O)n(C[C@H](O)C(=O)O)c(=O)n2Cc2ccc(Cl)cc2)ccc1OC(C)C` [Compound I-0852, (S)-1-(4-chlorobenzyl)-6-(3-mehyl-4-isopropoxyphenylimino)-3-(2-hydroxycarbonyl-2-hydroxyethyl)-1,3,5-triazinane-2,4-dion], for which the IC50 is 38 nM.
Take `COCCn1c(=O)[nH]/c(=N\c2ccc(Oc3cccc(C#N)n3)cc2)n(Cc2ccc(Cl)cc2)c1=O` [Compound I-2538]: the IC50 turned out to be 3 nM.
Same read-out and setting: the same measure for `CCn1c(=O)[nH]/c(=N\c2ccc(Oc3ccc(C(=O)O)cn3)cc2)n(Cc2ccc(C)cc2)c1=O` [Compound I-2400]: 6 nM; for `CCCOc1ccc(/N=c2\[nH]c(=O)n(C[C@H](CC)C(=O)OC)c(=O)n2Cc2ccc(C)cc2)cc1` [Compound I-0883]: 24 nM.
For `O=c1[nH]/c(=N\c2ccc(Oc3cnccn3)cc2)n(Cc2ccc(Cl)cc2)c(=O)n1CC(CO)CO` [Compound I-2710], the 50% inhibitory concentration (IC50) came to 6 nM.
Regarding `O=c1[nH]/c(=N\c2ccc(Oc3ncccn3)cc2)n(Cc2ccc(Cl)cc2)c(=O)n1C[C@H](O)CO` [Compound I-2418], the IC50 was determined as 12 nM.
The same measure, in the same setting: the same measure for `CCn1c(=O)[nH]/c(=N\c2ccc(Oc3ncc(C(=O)O)s3)cc2)n(C[C@H]2CC[C@H](C)CC2)c1=O` [Compound I-2347]: 5 nM; for `COC(=O)CCn1c(=O)[nH]/c(=N\c2ccc(Oc3ncns3)cc2)n(Cc2ccc(Cl)cc2)c1=O` [Compound I-2652]: 3 nM; for `Cn1c(=O)[nH]/c(=N\c2ccc(Oc3nc(C(=O)O)cs3)cc2)n(Cc2ccc(Cl)cc2)c1=O` [Compound I-2410]: 36 nM.
With `CNC(=O)Cn1c(=O)[nH]/c(=N\c2ccc(Oc3ncccn3)cc2)n(Cc2ccc(Cl)cc2)c1=O` [Compound I-2687], the half-maximal inhibitory concentration (IC50) turned out to be 35 nM.
In the case of `CC[C@H](C)n1c(=O)[nH]/c(=N\c2ccc(Oc3cncc(C(=O)O)c3)cc2)n(Cc2ccc(Cl)cc2)c1=O` [Compound I-2481], the half-inhibitory concentration (IC50) is 8 nM.
For the compound `CCc1nc2ccc(/N=c3\[nH]c(=O)n(CC4(C(=O)O)CC4)c(=O)n3Cc3ccc(Cl)cc3)cc2s1` [Compound I-1553], the concentration for half-maximal inhibition (IC50) worked out at 11 nM.
